This is an account of results in article PMC8050276, “Estradiol analogs attenuate autophagy, cell migration and invasion by direct and selective inhibition of TRPML1, independent of estrogen receptors” (Scientific Reports, 2021).

One experiment addresses T1, hTRPML2 (Homo sapiens, UniProt Q8IZK6).
T1 construct: host or cells: HEK293, FLP-in-Tet-On, tetracycline-induced
T1 sequence (Q8IZK6 1-566): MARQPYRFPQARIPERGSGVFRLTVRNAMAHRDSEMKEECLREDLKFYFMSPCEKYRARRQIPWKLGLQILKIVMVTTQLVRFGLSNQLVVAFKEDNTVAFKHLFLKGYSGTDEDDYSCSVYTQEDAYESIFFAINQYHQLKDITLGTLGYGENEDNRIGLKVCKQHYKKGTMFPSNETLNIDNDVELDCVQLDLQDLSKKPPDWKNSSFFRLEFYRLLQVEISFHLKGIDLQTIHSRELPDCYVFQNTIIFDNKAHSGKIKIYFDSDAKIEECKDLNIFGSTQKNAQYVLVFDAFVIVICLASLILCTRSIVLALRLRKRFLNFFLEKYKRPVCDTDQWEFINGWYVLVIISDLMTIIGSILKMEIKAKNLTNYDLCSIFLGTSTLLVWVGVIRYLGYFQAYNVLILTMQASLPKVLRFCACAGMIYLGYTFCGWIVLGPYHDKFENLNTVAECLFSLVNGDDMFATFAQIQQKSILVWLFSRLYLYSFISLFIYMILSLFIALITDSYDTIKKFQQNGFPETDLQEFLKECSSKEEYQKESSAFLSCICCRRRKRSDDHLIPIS
Description: Whole-cell patch-clamp, tetracycline-inducible HEK293 hTRPML2. The class given is cell-based. The conditions noted are these: 30 µM ML-SA1, pH 7.4; read-out: TRPML2 IC50, whole-cell patch-clamp. On the procedure:
Experiments were performed as described previously[20],[42]. In brief, cells were cultured on coverslips (Fisherbrand, Fisher Scientific) in complete DMEM medium with 10% FBS (Thermo Fisher). HEK293 cells expressing the desired channel protein were patch-clamped after overnight induction with tetracycline (1 µg/mL). […] The low pH bath solution contained (mM) 150 Na-Gluconate, 5 KCl, 2 CaCl2, 1 MgCl2, 10 glucose, 10 HEPES and 10 MES (pH 4.6). Whole‐cell currents were recorded using a Multiclamp 700B amplifier (Molecular Devices) with low‐pass filtering at 3 kHz. […] Current recording was done with WinWCP5.2.7 (University of Strathclyde, UK) software, and analysis was done with the help of a customized Igor pro program (WaveMetrics).

Another experiment concerns TFEB. Kind of experiment: TFEB shift / nuclear translocation upon nutrient starvation. As to conditions: EDME 1 µM, Hbss. It is filed as cell-based, human. On the procedure:
5 × 10^4 wild-type human fibroblasts were seeded in a 12-well plate and treated overnight with DMSO or different TRPML1 inhibitors (EDME, PRU-10, PRU-12). The day after, cells were treated for 3 h in full media (Fed) or HBSS supplemented with 10 mM HEPES (nutrient starved) in presence of DMSO or different TRPML1 inhibitors (EDME, PRU-10, PRU-12). For autophagic flux experiments, cells were co-treated with 100 nM of bafilomycin A1 (Sigma).
Total cell lysates were prepared using TRIS HCl 10 mM pH 8.0 and 0.2% SDS supplemented with protein and phosphatase inhibitors (Sigma). Protein concentration was determined using the Bradford method. After SDS–polyacrylamide gel electrophoresis (PAGE) and immunoblotting, the protein recognized by the specific antibody was visualized by chemiluminescence methods (Luminata Crescendo Western HRP substrate, Millipore) using HRP-conjugated anti-rabbit or anti-mouse secondary antibodies (Cell Signalling). Images were acquired using Li-Cor Odyssey Fc Imaging System and densitometric quantification of unsaturated images was performed using ImageJ software (NIH). Uncropped and unprocessed western blot scans are provided as Fig. S1. The following primary antibodies were used: LC3 (Novus Cat. No. NB100-2220, 1:1000 in 5% milk), TFEB (Cell Signaling Cat. No. 4240, 1:1000 in 5% BSA) and β-actin (Santa Cruz Cat. No. Sc-47778, 1: 1000 in 5% BSA).

As a reminder, the IC50 is the concentration that gives 50% inhibition. For the molecule `COc1ccc2c(c1)CC[C@@H]1[C@@H]2CC[C@]2(C)[C@@H](O)CC[C@@H]12` [EDME, 17β-estradiol methyl ether], the IC50 on hTRPML2 worked out at 3.8 µM. In addition, the “TFEB molecular downshift induced by nutrient starvation” value in the experiment on TFEB is reported as “reduced”.
